Assay results published in ChEMBL document CHEMBL1938267, “Capturing of the free cysteine residue in the ligand-binding site by affinity labeling of the ORL1 nociceptin receptor” (Bioorg Med Chem, 2011).
Activity calls are given as the source filed them. The calls are words filed in the database; no cut-off is given here. Peptide text beside a SMILES is read from it. * marks the point of attachment. Npys = O=[N+]([O-])c1cccnc1S*

Key:
[1] = Displacement of [3H]nociceptin from rat Galpha-fused ORL1 receptor expressed in african green monkey COS7 cells; assay type: cell-based; settings: cos-7
COS-7 [2] = assay: Displacement of [3H]nociceptin from rat Galpha-fused ORL1 receptor expressed in african green monkey COS7 cells preincubated with 100 uM N-ethylmaleimide for 90 mins measured after 90 mins; assay type: cell-based
[3] = Binding affinity to rat Galpha-fused ORL1 receptor expressed in african green monkey COS7 cells after 90 mins; assay type: cell-based; settings: cos-7
COS-7 [4] = assay: Binding affinity to rat Galpha-fused ORL1 receptor expressed in african green monkey COS7 cells at 100 uM after 90 mins; assay type: cell-based
Rattus norvegicus [5] = organism: Rattus norvegicus; assay: Antagonist activity at rat Galpha-fused ORL1 receptor assessed as reduction of receptor agonist nociceptin-induced [35S]GTPgammaS binding at 10 uM; assay type: functional
COS-7 [6] = assay: Binding affinity to rat Galpha-fused ORL1 receptor expressed in african green monkey COS7 cells at 5 uM after 90 mins; assay type: cell-based
COS-7 [7] = assay: Ratio of NEM EC50 to compound EC50 for binding affinity to rat Galpha-fused ORL1 receptor expressed in african green monkey COS7 cells; assay type: cell-based
Rattus norvegicus [8] = organism: Rattus norvegicus; assay: Agonist activity at rat Galpha-fused ORL1 receptor at 10 uM by [35S]GTPgammaS binding assay relative to nociceptin; assay type: functional
Rattus norvegicus [9] = organism: Rattus norvegicus; assay: Agonist activity at rat Galpha-fused ORL1 receptor by [35S]GTPgammaS binding assay relative to nociceptin; assay type: functional
COS-7 [10] = assay: Displacement of [3H]nociceptin from rat Galpha-fused ORL1 receptor expressed in african green monkey COS7 cells preincubated with 5 uM Cys(Npys)-RYYRIK-NH2 for 90 mins measured after 90 mins; assay type: cell-based

Structure (SMILES) | IC50 [1] [nM] | Activity (COS-7 [2]) | EC50 [3] [µM] | Activity (COS-7 [4]) [%] | Activity (Rattus norvegicus [5]) | Activity (COS-7 [6]) [%] | Ratio EC50 (COS-7 [7]) | Activity (Rattus norvegicus [8]) [%] | Activity (Rattus norvegicus [9]) | Activity (COS-7 [10])
CC(C)C[C@H](NC(=O)[C@H](CCCCN)NC(=O)[C@H](CCCNC(=N)N)NC(=O)[C@H](C)NC(=O)[C@H](CO)NC(=O)[C@H](CCCCN)NC(=O)[C@H](CCCNC(=N)N)NC(=O)[C@H](C)NC(=O)CNC(=O)[C@@H](NC(=O)[C@H](Cc1ccccc1)NC(=O)CNC(=O)CNC(=O)[C@@H](N)Cc1ccccc1)[C@@H](C)O)C(=O)N[C@@H](C)C(=O)N[C@@H](CC(N)=O)C(=O)N[C@@H](CCC(N)=O)C(=O)O [NOCICEPTIN] | 0.52 | Active |  |  |  |  |  |  |  | 
CCN1C(=O)C=CC1=O [N-ETHYLMALEIMIDE] |  |  | 43.7 | 65 |  |  |  |  |  | 
CC[C@H](C)[C@H](NC(=O)[C@H](CCCNC(=N)N)NC(=O)[C@H](Cc1ccc(O)cc1)NC(=O)[C@H](Cc1ccc(O)cc1)NC(=O)[C@H](CCCNC(=N)N)NC(=O)[C@@H](N)CSSc1ncccc1[N+](=O)[O-])C(=O)N[C@@H](CCCCN)C(N)=O (H-C(Npys)RYYRIK-NH2) | 133 |  | 1.9 |  | Active | 60 | 23 | 5 | inactive | Active
CC[C@H](C)[C@H](NC(=O)[C@H](CCCN=C(N)N)NC(=O)[C@H](Cc1ccc(O)cc1)NC(=O)[C@H](Cc1ccc(O)cc1)NC(=O)[C@H](CCCN=C(N)N)NC(C)=O)C(=O)N[C@@H](CCCCN)C(N)=O |  | Active |  |  |  |  |  | 60 |  | 
